Consider 31 substances from US6127339A, “Peptide for binding thereto a low density lipoprotein” (Asahi Kasei Kogyo Kabushiki Kaisha, priority 1995, dated 2000).

No end group written: not given here.

For the first test, the system named is LDL. As to the kind of experiment: LDL-adsorbing ratio of peptide-bonded resin in LDL solution (decrease of free cholesterol). Format: binding. Conditions: Table 3; peptide-bonded resin 85 mg dry, 1 ml LDL solution 50 μg/ml in PBS.
Turning to “FFFFFFGGGGG [comparative peptide bonded to TG polystyrene resin, electric charge 0 or less, reference compound]”, the “LDL-adsorbing ratio (%)” value was determined as 2.6%. The same measure, in the same setting: as for “LFLMR (not fully specified) [peptide bonded to TG polystyrene resin]”, the figure is 39.3%; as for LFLMRGGGGG, 36.9%; as for “WAWEEGGGGG (not fully specified) [comparative peptide bonded to TG polystyrene resin, electric charge 0 or less, reference compound]”, 4.3%.

Turning to “WAWRR (not fully specified) [peptide bonded to TG polystyrene resin]”, the “LDL-adsorbing ratio (%)” value is 62.2%. Still for that read-out and setting: as for “WAWRRGGGGG (not fully specified) [peptide bonded to TG polystyrene resin]”, the figure is 49.8%.

Staying with this test, now noted: Table 4; peptide-bonded resin 85 mg dry, 1 ml LDL solution 50 μg/ml in PBS.
“WFWK (not fully specified) [peptide bonded to TG polystyrene resin]”: the “LDL-adsorbing ratio (%)” value is given as 33.0%. In the case of “WFWKK (not fully specified) [peptide bonded to TG polystyrene resin]”, the “LDL-adsorbing ratio (%)” value amounted to 43.0%. With “WFWR (not fully specified) [peptide bonded to TG polystyrene resin]”, the “LDL-adsorbing ratio (%)” value turned out to be 35.0%.

In the case of “WFWRR (not fully specified) [peptide bonded to TG polystyrene resin]”, the “LDL-adsorbing ratio (%)” value was determined as 49.0%.

On to WWK, for which the “LDL-adsorbing ratio (%)” value is listed as 25.0%. Still for that read-out and setting: as for WWR, the figure is 32.0%.

The test is the same for the next values; noted with them: Table 5; D-form and L-form peptides on resin, same manner as Example 4.
On to WFWRR [WFWRR (D-form)], for which the “LDL-adsorbing ratio (%)” value is 38.3%.

Take WWR [WWR (D-form)]: the “LDL-adsorbing ratio (%)” value came to 41.6%. The same measure, in the same setting: to WWWR [WWWR (D-form)] belongs 33.8%. On the same count and under the same terms, to “WWWR [WWWR (L-form)] (also: L-form) [peptide bonded to TG polystyrene resin]” belongs 42.2%.

Still in this test, the particulars now being: Table 5; D-form and L-form peptides on resin, same manner as Example 4; listed as WFWRR (L-form).
In the case of “WFWRR (not fully specified) [peptide bonded to TG polystyrene resin]”, the “LDL-adsorbing ratio (%)” value is 39.1%.

The test is the same for the next values; noted with them: Table 5; D-form and L-form peptides on resin, same manner as Example 4; listed as WWR (L-form).
In the case of WWR, the “LDL-adsorbing ratio (%)” value is reported as 33.8%.

The same test, now with this note: Table 6; peptide-bonded resin, same manner as Example 4.
For “WAAAAAR (not fully specified) [peptide bonded to TG polystyrene resin]”, the “LDL-adsorbing ratio (%)” value is on record as 23.7%. Still for that read-out and setting: to “WAAAAR (not fully specified) [peptide bonded to TG polystyrene resin]” belongs 26.3%. Consider “WAAAR (not fully specified) [peptide bonded to TG polystyrene resin]”, for which the “LDL-adsorbing ratio (%)” value was 39.3%.

On to “WAAR (not fully specified) [peptide bonded to TG polystyrene resin]”, for which the “LDL-adsorbing ratio (%)” value was 36.3%. On the same count and under the same terms, as for WAR, the figure is 32.3%.

The test system of the next test is LDL. In words: Staining of peptide-bonded resin with biotinylated LDL in plasma (ABC method). Format: binding. Also noted: key: the peptide-bonded resins which were stained are indicated with "+ (plus)"; the peptide-bonded resins which were not stained are indicated with "- (minus)". The conditions noted are these: Table 2, peptide-bonded TG resin, same manner as Example 1. As to the method: With respect to the adsorbent comprising the water-insoluble carrier having bonded thereto the peptide, as a method for evaluating the binding ability (affinity) of the adsorbent for an LDL, there can be mentioned a method in which, after causing an LDL to be adsorbed on the adsorbent, the adsorbent having the LDL adsorbed thereon is subjected to staining (avidin-biotin complex method, that is, ABC method). Specifically, a biotinylated LDL is added to plasma, and the adsorbent is immersed in the plasma for a predetermined period of time. Then, the adsorbent is taken out of the plasma, and washed. Subsequently, the adsorbent is immersed in a horseradish peroxidase-labeled streptoavidin solution, and a solution of 3,3'-diamino benzidine, which is a substrate for the above-mentioned enzyme (horseradish peroxidase), is added thereto, thereby staining the adsorbent. The binding ability of the adsorbent for LDL is evaluated from the degree of the staining. With respect to methods for evaluating a binding ability for LDL, reference can be made to, for example, the following literature: S. M. Hsu, L. Raine, H. Fanger, J. Histchem. Cytochem., 29, 577 (1981); and H. Towbin, T. Staehelin, J. Gordon, Proc. Natl. Acad. Sci. U.S.A., 76, 4350 (1979).
The ability of each of the peptides to bind thereto an LDL was evaluated as follows. To a blood sample obtained from a healthy person was added a 3.8% aqueous solution of sodium citrate to thereby obtain a mixture. The obtained mixture was centrifuged to separate the blood sample into a blood cells component and a plasma component.
On the other hand, each of the above-mentioned polystyrene resins having bonded thereto the above-synthesized peptides was individually taken out from the synthesis reaction system and packed in a column having a filter (manufactured and sold by Bio-Rad laboratories, U.S.A.). Subsequently, the plasma-LDL mixture prepared above was added to the column, and the column was allowed to stand at room temperature for 1 hour. Then, the column was washed with a physiological saline containing 0.1% Tween 20 and sodium phosphate. After the washing, 1 ml of a horseradish peroxidase-labeled streptoavidine (0.2 ug/ml) solution containing 10% Block Ace (manufacturedand sold by Dainippon Pharmaceutical Co., Ltd., Japan) was added to the column, and the column was allowed to stand at room temperature for 30 minutes. Then, 1 ml of a 3,3'-diaminobenzidine tetrahydrochloride ([…]) solution containing 0.005% hydrogen peroxide was added to the column (by the addition of this solution, when a peptide-bonded resin contained in the column has the LDL bonded thereto, the resin is stained to assume brown color).
Results are shown in Table 1, wherein the peptide-bonded resins which were stained are indicated with "+ (plus)" and the peptide-bonded resins which were not stained are indicated with "- (minus)".
The ability of each of the peptides to bind thereto an LDL was evaluated in substantially the same manner as in Example 1.
With “Example 2 Sample 5: pentapeptide N1-N5 = R Y A F W, bonded to TG polystyrene resin (RYAFW; not fully specified; printed as Arg Tyr Ala Phe Trp)”, the Stain entry is “+”.

Regarding “Example 2 Sample 6: pentapeptide N1-N5 = K H I Y W, bonded to TG polystyrene resin (KHIYW; not fully specified; printed as Lys His Ile Tyr Trp)”, the Stain entry is on record as “+”. Still for that read-out and setting: as for “Example 2 Sample 7: pentapeptide N1-N5 = W R Y D R, bonded to TG polystyrene resin (WRYDR; not fully specified; printed as Trp Arg Tyr Asp Arg)”, the entry is “+”.

For the substance “Example 2 Sample 8: pentapeptide N1-N5 = L K W F Q, bonded to TG polystyrene resin (LKWFQ; not fully specified; printed as Leu Lys Trp Phe Gln)”, the Stain result was “+”. In the case of “Example 2 Sample 9: pentapeptide N1-N5 = Y Y R W F, bonded to TG polystyrene resin (YYRWF; not fully specified; printed as Tyr Tyr Arg Trp Phe)”, the Stain entry was “+”. Take “Example 2 Sample 10: pentapeptide N1-N5 = L W K S F, bonded to TG polystyrene resin (LWKSF; not fully specified; printed as Leu Trp Lys Ser Phe)”: the Stain entry is on record as “+”.

Regarding “Example 2 Sample 11: pentapeptide N1-N5 = F F W R G, bonded to TG polystyrene resin (FFWRG; not fully specified; printed as Phe Phe Trp Arg Gly)”, the Stain result was “+”. The same measure, in the same setting: to “Example 2 Sample 12: pentapeptide N1-N5 = L N F R W, bonded to TG polystyrene resin (LNFRW; not fully specified; printed as Leu Asn Phe Arg Trp)” belongs “+”; to “Example 2 Sample 13: pentapeptide N1-N5 = F L M R F, bonded to TG polystyrene resin (FLMRF; not fully specified; printed as Phe Leu Met Arg Phe)”, “+”; to “Example 2 Sample 14: pentapeptide N1-N5 = W L M W R, bonded to TG polystyrene resin (WLMWR; not fully specified; printed as Trp Leu Met Trp Arg)”, “+”.
